Measured values: US10065948B2, “Histone deacetylase inhibitors and compositions and methods of use thereof” (CHDI Foundation, Inc., priority 2014, dated 2018)

Key:
[1] = test system: cellular histone deacetylase enzymatic activity in Jurkat E6-1 cells; experiment: Inhibition of cellular HDAC activity, Boc-Lys(Tfa)-AMC substrate (Cell Lys-TFA); type: cell-based
Description: The potency of the compounds is quantified by measuring the cellular histone deacetylase enzymatic activity using the fluorogenic substrate, Boc-Lys(Tfa)-AMC. After penetration in Jurkat E6-1 cells, the substrate is deacetylated to Boc-Lys-AMC. After cell lysis and cleavage by trypsin, the fluorophore AMC is released from the deacetylated substrate only. The fluorescence of the sample is directly related to the histone deacetylase activity in the sample.
Jurkat E6.1 cells are cultured according to standard cell culture protocols in Jurkat E6.1 Growth Media (RPMI without phenol red, 10% FBS, 10 mM HEPES, and 1 mM Sodium Pyruvate). Jurkat E6.1 cells are counted using a Coulter Counter and resuspended in Jurkat E6.1 growth media at a concentration of 75,000 cells/35 μL. 35 μL or 75,000 cells is seeded into Greiner microtitre assay plates. The plates are then incubated at 37° C. and 5% CO2 while other assay components are being prepared.
(§1) Stocks of 70 μL aliquots of the 10 mM compound in DMSO are prepared and stored at −20° C. From one stock aliquot of each compound to be tested and the reference compound, a 16-point serial dilution is prepared according to Table 1 using a 125 μL 16-channel Matrix multi-channel pipette.
2 μL (200×) of each diluted solution and each control (full activity: 100% DMSO alone or full inhibition 1 mM) is stamped into V-bottom polypropylene 384-well compound plates using either the Bravo, Janus, or 12.5 μL 16-channel Matrix multi-channel pipette. Each well with the 200× compound solution is diluted 1:20 by the addition of 38 μL Jurkat assay buffer+DMSO (9.5% DMSO, RPMI without phenol red, 0.09% FBS, 9 mM Hepes, and 0.9 mM Sodium Pyruvate equilibrated to room temperature)
5× (500 μM) substrate is prepared just prior to the addition to the assay. The 5× substrate is prepared by diluting a 100 mM Boc-Lys(Tfa)-AMC in DMSO solution 1:200 by adding it drop-wise to Jurkat assay medium (RPMI without phenol red, 0.1% FBS, 10 mM Hepes, and 1 mM Sodium Pyruvate equilibrated to 37° C.) while vortexing at slow speed to prevent precipitation.
10 mL of 3× lysis buffer is prepared with 8.8 ml of 3× stock lysis buffer (50 mM Tris-HCl, pH 8.0, 137 mM NaCl, 2.7 mM KCl, 1 mM MgCl2, 1% Nonidet P40 Substitute equilibrated to room temperature) and 1.2 mL of 3 mg/mL Trypsin equilibrated to room temperature.
5 μL of each solution of 1:20 diluted compound from above is transferred to the Greiner microtitre assay plates with 75,000 cells/well using the Bravo. Cells are then incubated for 2 hours at 37° C. and 5% CO2. […] The cells are then incubated for 3 hours at 37° C. and 5% CO2. Next, 25 μL of 3× lysis buffer is added to each well using either the 125 μL 16 channel pipette or the Bravo. The assay plate is then incubated overnight (15-16 hours) at 37° C. and 5% CO2. The following day, the plates are shaken on an orbital shaker for 1 minute at 900 rpm. Finally the top read fluorescence (Excitation: 355 nm, Emission: 460 nm) is measured using PerkinElmer EnVision.

[2] = test system: cellular histone deacetylase activity (Lys-Ac); experiment: Inhibition of cellular HDAC activity (Cell Lys-Ac); type: cell-based; conditions: Lys-Ac substrate
[3] = molecular target: Histone Deacetylase 4 (HDAC4) catalytic domain (Homo sapiens (Human), UniProt P56524); experiment: Biochemical HDAC inhibition assay, fluorogenic substrate Boc-Lys(Tfa)-AMC
Description: The potency of compounds is quantified by measuring the Histone Deacetylase 4 (HDAC4) catalytic domain enzymatic activity using the fluorogenic substrate, Boc-Lys(Tfa)-AMC. The substrate is deacetylated to Boc-Lys-AMC by HDAC4. Cleavage by trypsin results in the release of the fluorophore AMC from the deacetylated substrate. The fluorescence of the sample is directly related to the histone deacetylase activity in the sample.
as §1, with “60” for “70”, “pipette (Matrix Technologies Ltd).” for “pipette.”
2 μL (200×) of each diluted solution and each control (full activity: 100% DMSO alone or full inhibition 1 mM) is stamped into V-bottomed polypropylene 384-well compound plates using either the Bravo (384-well head from Agilent) or 12.5 μL 16-channel Matrix multi-channel pipette (Matrix Technologies Ltd). Each well with the 200× compound solution is diluted 1:20 by the addition of 38 μL assay buffer+DMSO (10.5% DMSO, 45 mM Tris-HCl, 123 mM NaCl, 2.4 mM KCl, and 0.9 mM MgCl2 at pH 8.0 and equilibrated to room temperature).
The HDAC4 catalytic domain enzyme is human catalytic domain HDAC4 protein (amino acids 648-1032) with a C-terminal 6× histidine tag, produced by BioFocus. A working solution of enzyme is prepared from a 500 μg/mL stock aliquot of HDAC4 catalytic domain (thawed on ice) diluted to 0.2 μg/mL with assay buffer (50 mM Tris-HCl, 137 mM NaCl, 2.7 mM KCl, and 1 mM MgCl2 at pH 8 and equilibrated to room temperature) just prior to the addition of the enzyme to the assay.
5× (50 μM) substrate is prepared just prior to the addition to the assay. A 1 mM substrate stock is made by diluting a 100 mM Boc-Lys(Tfa)-AMC in DMSO solution 1:100 by adding it drop-wise to assay buffer (equilibrated to room temperature) while vortexing at slow speed to prevent precipitation. The 5× substrate is prepared by diluting the 1 mM substrate solution 1:20 by adding it drop-wise to assay buffer (equilibrated to room temperature) while vortexing at slow speed to prevent precipitation.
3× (30 μM) Developer/Stop Solution is prepared just prior to addition to the plate by diluting a stock solution of 10 mM reference compound 1:333 in 25 mg/mL trypsin (PAA Laboratories Ltd.) equilibrated to room temperature.
5 μL of each solution of 1:20 diluted compound from above is transferred to a clear bottomed, black, 384-well assay plate using the Bravo or the Janus (384-well MDT head from Perkin Elmer). Using a 16-channel Matrix multi-channel pipette, 35 μL of the working solution of HDAC4 catalytic domain enzyme (0.2 μg/mL in assay buffer) is transferred to the assay plate. […] The assay plate is then shaken for two minutes on an orbital shaker at 900 rpm (rotations per minute). Next the plate is incubated for 15 minutes at 37° C. The reaction is stopped by adding 25 μL of 3× (30 μM) developer/stop solution to the assay plates using either the Bravo, Janus or a 16-channel Matrix multi-channel pipette. Assay plates are then shaken for 5 minutes on an orbital shaker at 1200 rpm. Next, the assay plates are incubated at 37° C. for 1 hour in a tissue culture incubator. Finally, the fluorescence is measured (Excitation: 355 nm, Emission: 460 nm) using PerkinElmer EnVision in top read mode.

[4] = Homo sapiens, Jurkat E6.1, Lys-TFA substrate

Sequence of Histone Deacetylase 4 (HDAC4) catalytic domain (P56524 648-1032): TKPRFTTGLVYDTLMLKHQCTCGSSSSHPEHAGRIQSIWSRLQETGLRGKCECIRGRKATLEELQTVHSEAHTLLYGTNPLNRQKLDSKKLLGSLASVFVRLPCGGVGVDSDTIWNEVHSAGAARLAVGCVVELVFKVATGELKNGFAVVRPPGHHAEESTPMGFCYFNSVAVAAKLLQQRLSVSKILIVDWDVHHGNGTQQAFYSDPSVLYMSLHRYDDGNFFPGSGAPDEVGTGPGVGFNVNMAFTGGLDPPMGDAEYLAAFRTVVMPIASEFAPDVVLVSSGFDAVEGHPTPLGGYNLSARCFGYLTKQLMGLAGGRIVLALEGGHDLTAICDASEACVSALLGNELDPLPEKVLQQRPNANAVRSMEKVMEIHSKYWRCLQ

Row | Structure (SMILES) | IC50 [1, 4] [nM] | IC50 [2] [nM] | IC50 [3] [nM] | IC50 ([1]; Lys-TFA substrate) [nM]
1 | Cc1c(F)cccc1[C@]1(C(=O)NO)CCc2c1cnn2C1CC1 [Example 59, (R)-1-cyclopropyl-4-(3-fluoro-2-methylphenyl)-N-hydroxy-1,4,5,6-tetrahydrocyclopenta[c]pyrazole-4-carboxamide] | 720 | > 50000 | 100 | –
2 | Cc1c(F)cccc1[C@]1(C(=O)NO)Cc2cnn(-c3ccc(F)cc3)c2C1 [Example 5, (S)-5-(3-Fluoro-2-methylphenyl)-1-(4-fluorophenyl)-N-hydroxy-1,4,5,6-tetrahydrocyclopenta[c]pyrazole-5-carboxamide] | 99 | > 50000 | 53 | –
3 | Cc1ccc(C)c(-n2ncc3c2C[C@](C(=O)NO)(c2cccc(F)c2C)C3)c1 [Example 12, (S)-1-(2,5-Dimethylphenyl)-5-(3-fluoro-2-methylphenyl)-N-hydroxy-1,4,5,6-tetrahydrocyclopenta[c]pyrazole-5-carboxamide] | 18 | > 50000 | 21 | –
4 | Cc1c(F)cccc1[C@]1(C(=O)NO)Cc2cnn(C3CC3)c2C1 [Example 58, (S)-1-Cyclopropyl-5-(3-fluoro-2-methylphenyl)-N-hydroxy-1,4,5,6-tetrahydrocyclopenta[c]pyrazole-5-carboxamide] | 125 | > 50000 | 48 | –
5 | Cc1c(F)cccc1[C@]1(C(=O)NO)CCc2nc(-c3ccc(F)cc3)sc21 [Example 78, (S)-6-(3-Fluoro-2-methylphenyl)-2-(4-fluorophenyl)-N-hydroxy-5,6-dihydro-4H-cyclopenta[d]thiazole-6-carboxamide] | 500 | > 50000 | 120 | –
6 | Cc1c(F)cccc1C1(C(=O)NO)CCc2nc(C3CC3)ncc2C1 (centres unmarked) [Example 46, 2-Cyclopropyl-6-(3-fluoro-2-methylphenyl)-N-hydroxy-5,6,7,8-tetrahydroquinazoline-6-carboxamide] | 760 | > 50000 | 1600 | –
7 | Cc1c(F)cccc1C1(C(=O)NO)Cc2nc(Cc3cccc(C(F)(F)F)c3)sc2C1 (centres unmarked) [Example 63, 5-(3-Fluoro-2-methylphenyl)-N-hydroxy-2-(3-(trifluoromethyl)benzyl)-5,6-dihydro-4H-cyclopenta[d]thiazole-5-carboxamide] | 38 | > 50000 | 490 | –
8 | Cc1c(F)cccc1[C@@]1(C(=O)NO)Cc2nc(-c3ccnn3C)sc2C1 [Example 69, (R)-5-(3-Fluoro-2-methylphenyl)-N-hydroxy-2-(1-methyl-1H-pyrazol-5-yl)-5,6-dihydro-4H-cyclopenta[d]thiazole-5-carboxamide] | 35 | > 50000 | 44 | –
9 | Cc1c(F)cccc1[C@]1(C(=O)NO)Cc2cn(-c3ccc(OC(F)F)cc3)nc2C1 [Example 21, (S)-2-(4-(difluoromethoxy)phenyl)-5-(3-fluoro-2-methylphenyl)-N-hydroxy-2,4,5,6-tetrahydrocyclopenta[c]pyrazole-5-carboxamide] | 175 | > 50000 | 147 | –
10 | Cc1c(F)cccc1[C@]1(C(=O)NO)Cc2cnn(Cc3ccccc3)c2C1 [Example 92, (S)-1-Benzyl-5-(3-fluoro-2-methylphenyl)-N-hydroxy-1,4,5,6-tetrahydrocyclopenta[c]pyrazole-5-carboxamide] | 27 | > 50000 | 48 | –
11 | Cc1c(F)cccc1C1(C(=O)NO)CCc2nc(C3CC3)[nH]c(=O)c2C1 (centres unmarked) [Example 40, 2-Cyclopropyl-6-(3-fluoro-2-methylphenyl)-N-hydroxy-4-oxo-3,4,5,6,7,8-hexahydroquinazoline-6-carboxamide] | 580 | > 50000 | 1600 | –
12 | Cc1c(F)cccc1C1(C(=O)NO)Cc2ccccc2C1 [Example 82, 2-(3-Fluoro-2-methylphenyl)-N-hydroxy-2,3-dihydro-1H-indene-2-carboxamide] | 1800 | > 50000 | 110 | –
13 | Cc1c(F)cccc1[C@]1(C(=O)NO)Cc2cnn(-c3ccc(Cl)cc3)c2C1 [Example 8, (S)-1-(4-Chlorophenyl)-5-(3-fluoro-2-methylphenyl)-N-hydroxy-1,4,5,6-tetrahydrocyclopenta[c]pyrazole-5-carboxamide] | 103 | > 50000 | – | –
14 | Cc1c(F)cccc1[C@]1(C(=O)NO)Cc2nc(-c3ccc(F)cc3)sc2C1 [Example 67, (S)-5-(3-fluoro-2-methylphenyl)-2-(4-fluorophenyl)-N-hydroxy-5,6-dihydro-4H-cyclopenta[d]thiazole-5-carboxamide] | 290 | > 50000 | – | –
15 | Cc1ccccc1-n1ncc2c1CCC(C(=O)NO)(c1cccc(F)c1C)C2 (single isomer, unassigned) [Example 37, E1-(abs)-5-(3-Fluoro-2-methylphenyl)-N-hydroxy-1-(o-tolyl)-4,5,6,7-tetrahydro-1H-indazole-5-carboxamide] | – | > 50000 | – | 86
16 | Cc1c(F)cccc1C1(C(=O)NO)CCc2nn(-c3ccccc3F)cc2C1 (single isomer, unassigned) [Example 33, E1-(abs)-5-(3-Fluoro-2-methylphenyl)-2-(2-fluorophenyl)-N-hydroxy-4,5,6,7-tetrahydro-2H-indazole-5-carboxamide] | – | > 50000 | – | 410
